This experiment deals with T1, recombinant human full-length HSD17B13 protein (Homo sapiens, UniProt Q7Z5P4).
T1 construct: recombinant human full-length HSD17B13 protein; 6xHis (C); made in house; host or cells: HEK293E-253/FH
T1 sequence (Q7Z5P4 20-300): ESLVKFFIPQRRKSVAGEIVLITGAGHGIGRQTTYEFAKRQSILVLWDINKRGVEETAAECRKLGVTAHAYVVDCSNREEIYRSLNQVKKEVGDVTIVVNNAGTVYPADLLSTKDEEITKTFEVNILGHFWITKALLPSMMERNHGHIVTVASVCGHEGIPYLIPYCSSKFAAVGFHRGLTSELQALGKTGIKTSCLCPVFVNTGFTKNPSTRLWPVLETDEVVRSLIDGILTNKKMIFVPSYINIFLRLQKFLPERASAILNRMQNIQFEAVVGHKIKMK
In words: HSD17B13 96 luminescence inhibition assay (NAD(P)H-Glo). Type of experiment: biochemical. The method, then: Compounds of the present disclosure were tested for inhibition of HSD17B13 using the following protocol. Briefly, recombinant human full-length HSD17B13 protein with a 6X-C-terminal His tag was expressed in cell line HEK293E-253/FH and purified using Ni^2+-affinity purification. Enzymatic activity was determined through the production of NADH using the NAD(P)H-Glo Detection System (Promega). The inhibitory activity of test compounds was determined in reactions performed at 30° C. in assay buffer consisting of 25 mM EPPS (8.0), 125 mM NaCl, 0.03% Triton X-100, 0.03% BSA, with […] steroid substrate (1,3,5(10), 7-estratetraen-3, 17b-diol (Steraloids E0580)) added from a 2.5 mM DMSO stock and 500 mM NAD. The final percentage of DMSO was 4.5%. After a one-hour incubation, a 20% volume of luciferase Glo-reagent was added and light units captured on a Victor V Plate Reader (Perkin Elmer).
Concentration-response curves for inhibitors were normalized to control samples containing enzyme only (negative control) and sample without enzyme (positive control). 50% inhibition (IC50) values were determined using a nonlinear least squares fit of the data to a four-parameter equation using Prism 6.0 (GraphPad Software, San Diego).
`CS(=O)(=O)N1CCC(CN2C(=O)S/C(=C\c3c(F)cc(F)c(O)c3F)C2=O)C1` (stereo not drawn) [Compound 1, (Z)-3-((1-(methylsulfonyl)pyrrolidin-3-yl)methyl)-5-(2,4,6-trifluoro-3-hydroxybenzylidene)thiazolidine-2,4-dione]: the IC50 is more than 5 µM. Turning to `O=C1S/C(=C\c2ccc(F)c(O)c2)C(=O)N1Cc1ccc(F)c(F)c1` [Compound 2, (Z)-3-(3,4-difluorobenzyl)-5-(4-fluoro-3-hydroxybenzylidene)thiazolidine-2,4-dione], the IC50 was 1 to 5 µM. Take `O=C1S/C(=C\c2cc(F)c(F)c(O)c2F)C(=O)N1Cc1cccc(O)c1` [Compound 3, (Z)-3(3-hydroxybenzyl)-5-(2,4,5-trifluoro-3-hydroxybenzylidene)thiazolidine-2,4-dione]: the IC50 fell in the range of 1 to 5 µM. For `O=C1S/C(=C\c2c(F)cc(F)c(O)c2F)C(=O)N1Cc1cccc(O)c1` [Compound 4, (Z)-3-(3-hydroxybenzyl)-5-(2,4,6-trifluoro-3-hydroxybenzylidene)thiazolidine-2,4-dione], the concentration for half-maximal inhibition (IC50) lay within 1 to 5 µM. Consider `O=C1S/C(=C\c2ccc(F)c(O)c2F)C(=O)N1Cc1cccc(O)c1` [Compound 6, (Z)-5(2,4-difluoro-3-hydroxybenzylidene)-3-(3-hydroxybenzyl)thiazolidine-2,4-dione], for which the IC50 is 1 to 5 µM. For the molecule `O=C1S/C(=C\c2cc(O)c(F)c(F)c2)C(=O)N1Cc1cccc(O)c1` [Compound 7, (5Z)-5-[(3,4-difluoro-5-hydroxyphenyl)methylidene]-3-[(3-hydroxyphenyl)methyl]-1,3-thiazolidine-2,4-dione], the IC50 was 1 to 5 µM. In the case of `O=C1S/C(=C\c2ccc(F)c(O)c2)C(=O)N1Cc1cc(O)ccc1F` [Compound 8, (Z)-5-(4-fluoro-3-hydroxybenzylidene)-3-(2-fluoro-5-hydroxybenzyl)thiazolidine-2,4-dione], the IC50 is 1 to 5 µM. Next, `O=C1S/C(=C\c2ccc(F)c(O)c2)C(=O)N1Cc1cc(O)cc(F)c1` [Compound 9, (Z)-5-(4-fluoro-3-hydroxybenzylidene)-3-(3-fluoro-5-hydroxybenzyl)thiazolidine-2,4-dione]: 1 to 5 µM. The same measure for `O=C1O/C(=C\c2ccc(F)c(O)c2)C(=O)N1Cc1cccc(O)c1` [Compound 10, (Z)-5-(4-fluoro-3-hydroxybenzylidene)-3-(3-hydroxybenzyl)oxazolidine-2,4-dione]: more than 5 µM; for `O=C1S/C(=C\c2ccc(F)c(O)c2)C(=O)N1Cc1cccc(O)c1` [Compound 11, (Z)-5-(4-fluoro-3-hydroxybenzylidene)-3-(3-hydroxybenzyl)thiazolidine-2,4-dione]: 1 to 5 µM. Next, `CS(=O)(=O)c1cccc(CN2C(=O)S/C(=C\c3ccc(F)c(O)c3)C2=O)c1` [Compound 12, (Z)-5-(4-fluoro-3-hydroxybenzylidene)-3-(3-(methylsulfonyl)benzyl)thiazolidine-2,4-dione]: 1 to 5 µM; `O=C1O/C(=C\c2ccc(F)c(O)c2)C(=O)N1CC1CCOCC1` [Compound 13, (Z)-5-(4-fluoro-3-hydroxybenzylidene)-3-((tetrahydro-2H-pyran-4-yl)methyl) oxazolidine-2,4-dione]: 1 to 5 µM; `O=C1S/C(=C\c2ccc(F)c(O)c2)C(=O)N1CC1CCOCC1` [Compound 14, (Z)-5-(4-fluoro-3-hydroxybenzylidene)-3-((tetrahydro-2H-pyran-4-yl)methyl)thiazolidine-2,4-dione]: more than 5 µM. In the case of `O=C1S/C(=C\c2ccc(F)c(O)c2)C(=O)N1Cc1cccc(-c2c[nH]nn2)c1` [Compound 15, (Z)-3-(3-(1H-1,2,3-triazol-4-yl)benzyl)-5-(4-fluoro-3-hydroxybenzylidene) thiazolidine-2,4-dione], the 50% inhibitory concentration (IC50) was in the range of 1 to 5 µM. Next, `O=C1S/C(=C\c2ccc(F)c(O)c2)C(=O)N1Cc1cccc(OC(F)(F)F)c1` [Compound 16, (Z)-5-(4-fluoro-3-hydroxybenzylidene)-3-(3-(trifluoromethoxy)benzyl) thiazolidine-2,4-dione]: more than 5 µM.
